Laboratory results reported in ChEMBL document CHEMBL2169754, “Imidazo[1,2-a]pyridines That Directly Interact with Hepatitis C NS4B: Initial Preclinical Characterization” (ACS Med Chem Lett, 2012).
Values belong to the compound of their own block, whether it stands above or below them.

Columns and labels:
Hepatitis C virus [1] = assay: Antiviral activity against wild type HCV genotype 1a infected in human HuH7 cells after 48 hrs by luciferase reporter gene assay; format: functional, organism-based, Hepacivirus hominis; conditions: subtype 1a, Huh-7, 48 h
Hepatitis C virus [2] = assay: Displacement of [3H]-3-(1-(3-chloro-6-isopropyl-8-(trifluoromethyl)imidazo[1,2-a]pyridine-2-carbonyl)piperidin-4-yl)oxazolidin-2-one from HCV genotype 1b His6-tagged NS4B expressed in baculovirus infected Sf9 cells after overnight incubation; parameters: species or system Hepatitis C virus subtype 1b
Hepatitis C virus [3] = assay: Antiviral activity against wild type HCV genotype 1b infected in human HuH7 cells after 48 hrs by luciferase reporter gene assay; format: functional, organism-based, Hepacivirus hominis; conditions: Huh-7, 48 h
[4] = Solubility of the compound; format: physicochemical
[5] = Oral bioavailability in Sprague-Dawley rat at 5 mg/kg; format: ADME, organism-based; conditions: in vivo
[6] = Clearance in Sprague-Dawley rat at 1 mg/kg, iv; format: ADME, organism-based; parameters: dose 1 mg/kg, route intravenous; conditions: in vivo
[7] = AUC (0 to 24 hrs) in Sprague-Dawley rat at 5 mg/kg, po; format: ADME, organism-based; parameters: time < 24 hr, dose 5 mg/kg, route oral; conditions: plasma
[8] = Volume of distribution at steady state in Sprague-Dawley rat at 1 mg/kg, iv; format: ADME, organism-based; parameters: dose 1 mg/kg, route intravenous; conditions: in vivo, read-out: Vdss
[9] = Half life in Sprague-Dawley rat at 5 mg/kg, po; format: ADME, organism-based; parameters: dose 5 mg/kg, route oral; conditions: in vivo
Hepatitis C virus [10] = assay: Binding affinity to HCV genotype 1b His6-tagged NS4B expressed in baculovirus infected Sf9 cells after overnight incubation; conditions: Hepatitis C virus subtype 1b, tested as the 3H-labelled form
Hepatitis C virus [11] = assay: Antiviral activity against HCV genotype 1b expressing NS4B V105M mutant stably infected in human HuH7 cells after 48 hrs by luciferase reporter gene assay; format: functional, organism-based, Hepacivirus hominis; conditions: Huh-7, 48 h
Hepatitis C virus [12] = assay: Ratio of EC50 for HCV genotype 1b expressing NS4B H94N mutant to EC50 for wild type HCV genotype 1b; format: functional, Hepacivirus hominis
Hepatitis C virus [13] = assay: Antiviral activity against HCV genotype 1b expressing NS4B F98L mutant transiently infected in human HuH7 cells after 48 hrs by luciferase reporter gene assay; format: functional, organism-based, Hepacivirus hominis; conditions: Huh-7, 48 h
Hepatitis C virus [14] = assay: Antiviral activity against HCV genotype 1b expressing NS4B H94R mutant transiently infected in human HuH7 cells after 48 hrs by luciferase reporter gene assay; format: functional, organism-based, Hepacivirus hominis; conditions: Huh-7, 48 h
[15] = AUC (0 to 24 hrs) in beagle dog at 5 mg/kg, po; format: ADME, organism-based, Canis lupus familiaris; parameters: time < 24 hr, dose 5 mg/kg, route oral; conditions: plasma
[16] = Volume of distribution at steady state in beagle dog at 1 mg/kg, iv; format: ADME, organism-based, Canis lupus familiaris; parameters: dose 1 mg/kg, route intravenous; conditions: in vivo, read-out: Vdss
[17] = Clearance in beagle dog at 1 mg/kg, iv; format: ADME, organism-based, Canis lupus familiaris; parameters: dose 1 mg/kg, route intravenous; conditions: in vivo
Hepatitis C virus [18] = assay: Antiviral activity against HCV genotype 1b expressing NS5B M414T mutant transiently infected in human HuH7 cells after 48 hrs by luciferase reporter gene assay; format: functional, organism-based, Hepacivirus hominis; conditions: Huh-7, 48 h
Liver microsomes [19] = assay: Drug metabolism in human liver microsomes assessed as reactive metabolite formation at 10 uM after 30 mins by glutathione trapping assay; format: ADME, Microsome; conditions: 0.5 h
Cytochrome P450 2C9 = Cytochrome P450 2C9 (Homo sapiens, UniProt P11712); assay: Inhibition of CYP2C9 in human liver microsomes after 10 mins by LC/MS/MS analysis; format: ADME, Microsome
Hepatitis C virus [20] = assay: Antiviral activity against HCV genotype 1b expressing NS4B V105L mutant transiently infected in human HuH7 cells after 48 hrs by luciferase reporter gene assay; format: functional, organism-based, Hepacivirus hominis; conditions: Huh-7, 48 h
Cytochrome P450 3A4 = Cytochrome P450 3A4 (Homo sapiens, UniProt P08684); assay: Inhibition of CYP3A4 in human liver microsomes after 7 mins by LC/MS/MS analysis; format: ADME, Microsome
Cytochrome P450 1A2 = target: T1, Cytochrome P450 1A2 (Homo sapiens, UniProt P05177); assay: Inhibition of CYP1A2 in human liver microsomes after 10 mins by LC/MS/MS analysis; format: ADME, Microsome
T1 sequence (P05177 whole entry): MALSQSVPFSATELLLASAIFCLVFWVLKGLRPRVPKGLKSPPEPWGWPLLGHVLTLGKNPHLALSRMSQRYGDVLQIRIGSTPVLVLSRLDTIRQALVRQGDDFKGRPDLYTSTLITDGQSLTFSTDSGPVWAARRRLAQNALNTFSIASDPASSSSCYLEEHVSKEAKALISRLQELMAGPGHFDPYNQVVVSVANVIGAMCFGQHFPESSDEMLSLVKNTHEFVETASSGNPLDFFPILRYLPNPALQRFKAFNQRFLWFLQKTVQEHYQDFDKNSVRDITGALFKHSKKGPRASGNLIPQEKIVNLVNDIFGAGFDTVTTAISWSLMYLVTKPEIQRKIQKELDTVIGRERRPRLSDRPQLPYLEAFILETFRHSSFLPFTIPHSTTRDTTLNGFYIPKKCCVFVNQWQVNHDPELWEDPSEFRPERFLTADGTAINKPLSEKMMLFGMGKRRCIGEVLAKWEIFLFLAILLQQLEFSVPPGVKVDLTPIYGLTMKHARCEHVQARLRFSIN

Cytochrome P450 2D6 = Cytochrome P450 2D6 (Homo sapiens, UniProt P10635); assay: Inhibition of CYP2D6 in human liver microsomes after 10 mins by LC/MS/MS analysis; format: ADME, Microsome
[21] = Oral bioavailability in beagle dog at 5 mg/kg; format: ADME, organism-based, Canis lupus familiaris; conditions: in vivo
Liver microsomes [22] = assay: Drug metabolism in rat liver microsomes assessed as reactive metabolite formation at 10 uM after 30 mins by glutathione trapping assay; format: ADME, Microsome; conditions: 0.5 h
[23] = Half life in beagle dog at 5 mg/kg, po; format: ADME, organism-based, Canis lupus familiaris; parameters: dose 5 mg/kg, route oral; conditions: in vivo
Hepatitis C virus [24] = assay: Antiviral activity against HCV genotype 1b expressing NS4B H94N mutant stably infected in human HuH7 cells after 48 hrs by luciferase reporter gene assay; format: functional, organism-based, Hepacivirus hominis; conditions: Huh-7, 48 h
Hepatitis C virus [25] = assay: Antiviral activity against HCV genotype 1b expressing NS5A L31V mutant transiently infected in human HuH7 cells after 48 hrs by luciferase reporter gene assay; format: functional, organism-based, Hepacivirus hominis; conditions: Huh-7, 48 h
Hepatitis C virus [26] = assay: Ratio of EC50 for HCV genotype 1b expressing NS4B V105N mutant to EC50 for wild type HCV genotype 1b; format: functional, Hepacivirus hominis
Cytochrome P450 2C19 = Cytochrome P450 2C19 (Homo sapiens, UniProt P33261); assay: Inhibition of CYP2C19 in human liver microsomes after 10 mins by LC/MS/MS analysis; format: ADME, Microsome
Hepatitis C virus [27] = assay: Antiviral activity against HCV genotype 1b expressing NS3 A156T mutant transiently infected in human HuH7 cells after 48 hrs by luciferase reporter gene assay; format: functional, organism-based, Hepacivirus hominis; conditions: Huh-7, 48 h

Chain of Cytochrome P450 2C19 (P33261 whole entry): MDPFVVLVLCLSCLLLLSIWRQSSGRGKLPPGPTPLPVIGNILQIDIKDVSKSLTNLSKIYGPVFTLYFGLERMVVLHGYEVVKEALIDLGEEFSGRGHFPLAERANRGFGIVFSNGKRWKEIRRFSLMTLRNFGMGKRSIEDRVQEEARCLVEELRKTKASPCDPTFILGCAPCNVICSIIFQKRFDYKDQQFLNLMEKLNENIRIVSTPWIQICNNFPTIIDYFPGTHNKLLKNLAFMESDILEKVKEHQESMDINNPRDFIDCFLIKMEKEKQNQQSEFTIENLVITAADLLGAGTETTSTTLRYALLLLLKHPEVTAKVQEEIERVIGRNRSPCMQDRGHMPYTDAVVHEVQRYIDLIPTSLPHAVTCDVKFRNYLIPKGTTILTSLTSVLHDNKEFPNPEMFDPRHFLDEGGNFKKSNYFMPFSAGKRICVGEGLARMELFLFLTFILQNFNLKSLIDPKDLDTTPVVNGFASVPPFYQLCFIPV
Chain of Cytochrome P450 2D6 (P10635 whole entry): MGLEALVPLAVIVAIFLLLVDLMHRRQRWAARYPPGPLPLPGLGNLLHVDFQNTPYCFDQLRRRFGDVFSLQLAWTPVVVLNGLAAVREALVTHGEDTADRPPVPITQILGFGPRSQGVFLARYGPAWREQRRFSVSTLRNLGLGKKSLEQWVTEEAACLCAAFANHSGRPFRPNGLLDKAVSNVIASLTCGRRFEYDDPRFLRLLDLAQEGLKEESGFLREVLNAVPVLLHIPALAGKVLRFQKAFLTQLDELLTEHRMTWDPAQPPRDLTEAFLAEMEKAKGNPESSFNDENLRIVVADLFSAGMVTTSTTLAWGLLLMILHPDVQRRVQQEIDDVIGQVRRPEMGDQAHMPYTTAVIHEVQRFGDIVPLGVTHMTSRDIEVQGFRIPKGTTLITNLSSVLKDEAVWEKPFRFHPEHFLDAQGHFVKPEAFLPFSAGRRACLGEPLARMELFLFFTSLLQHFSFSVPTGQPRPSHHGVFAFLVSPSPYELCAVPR
Chain of Cytochrome P450 3A4 (P08684 whole entry): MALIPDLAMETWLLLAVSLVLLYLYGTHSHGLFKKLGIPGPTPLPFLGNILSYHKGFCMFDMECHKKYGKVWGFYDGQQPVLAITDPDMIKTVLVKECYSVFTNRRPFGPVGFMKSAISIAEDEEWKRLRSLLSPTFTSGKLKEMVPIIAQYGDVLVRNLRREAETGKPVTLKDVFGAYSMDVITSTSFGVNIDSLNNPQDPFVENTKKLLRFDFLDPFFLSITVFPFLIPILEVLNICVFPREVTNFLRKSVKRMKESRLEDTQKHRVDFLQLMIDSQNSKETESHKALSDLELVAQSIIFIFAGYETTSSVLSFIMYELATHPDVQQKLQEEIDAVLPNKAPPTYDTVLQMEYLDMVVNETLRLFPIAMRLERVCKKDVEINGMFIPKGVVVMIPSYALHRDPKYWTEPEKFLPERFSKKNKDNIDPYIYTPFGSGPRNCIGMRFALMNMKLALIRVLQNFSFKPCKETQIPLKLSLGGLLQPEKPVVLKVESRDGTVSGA
Chain of Cytochrome P450 2C9 (P11712 whole entry): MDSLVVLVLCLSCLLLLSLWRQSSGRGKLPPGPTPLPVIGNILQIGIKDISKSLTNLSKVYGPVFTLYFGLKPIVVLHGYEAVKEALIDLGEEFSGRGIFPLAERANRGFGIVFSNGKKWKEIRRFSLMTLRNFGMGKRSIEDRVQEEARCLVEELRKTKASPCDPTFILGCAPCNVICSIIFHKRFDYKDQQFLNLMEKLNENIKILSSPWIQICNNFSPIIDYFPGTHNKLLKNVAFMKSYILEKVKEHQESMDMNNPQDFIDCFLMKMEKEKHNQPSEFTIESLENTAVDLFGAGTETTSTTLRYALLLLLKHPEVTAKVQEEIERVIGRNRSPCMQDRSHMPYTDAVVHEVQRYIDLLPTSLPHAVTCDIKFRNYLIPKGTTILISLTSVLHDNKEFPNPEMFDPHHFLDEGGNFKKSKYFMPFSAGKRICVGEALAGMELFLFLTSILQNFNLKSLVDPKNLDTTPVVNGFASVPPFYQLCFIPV

- EC50 (Hepatitis C virus [1]): 770 nM
- IC50 (Hepatitis C virus [2]): 12 nM
- EC50 (Hepatitis C virus [3]): 67 nM
- solubility [4]: < 15 µM
Compound: O=C(c1nc2c(C(F)(F)F)cc(-c3ccoc3)cn2c1Cl)N1CCC(c2cccs2)C1 (racemic)

- EC50 (Hepatitis C virus [1]): 18000 nM
- IC50 (Hepatitis C virus [2]): 1200 nM
- EC50 (Hepatitis C virus [3]): 36000 nM
- solubility [4]: > 500 µM
Compound: CN1CCN(C(=O)c2nc3c(C(F)(F)F)cc(-c4ccoc4)cn3c2Cl)CC1=O

- EC50 (Hepatitis C virus [1]): 9900 nM
- IC50 (Hepatitis C virus [2]): 220 nM
- EC50 (Hepatitis C virus [3]): 76000 nM
- solubility [4]: > 500 µM
Compound: CC1(C)CN(C2CCN(C(=O)c3nc4c(C(F)(F)F)cc(-c5ccoc5)cn4c3Cl)CC2)C(=O)O1

- EC50 (Hepatitis C virus [1]): 740 nM
- IC50 (Hepatitis C virus [2]): 22 nM
- EC50 (Hepatitis C virus [3]): 450 nM
Compound: O=C(NCc1cccs1)c1cc2nc(-c3ccco3)cc(C(F)(F)Cl)n2n1 [ANGUIZOLE]

- EC50 (Hepatitis C virus [1]): 150 nM
- IC50 (Hepatitis C virus [2]): 250 nM
- EC50 (Hepatitis C virus [3]): 300 nM
- solubility [4]: > 500 µM
Compound: O=C(c1nc2c(C(F)(F)F)cc(-c3ccoc3)cn2c1Cl)N1CCN([C@H]2CC[C@@H](O)CC2)C(=O)C1

- EC50 (Hepatitis C virus [1]): 20 nM
- IC50 (Hepatitis C virus [2]): 35 nM
- EC50 (Hepatitis C virus [3]): 51 nM
- bioavailability [5]: 60%
- clearance [6]: 46 mL/min/kg
- AUC(0-t) at 24 h [7]: 1100 ng·h/mL
- Vd [8]: 3.1 L/kg
- solubility [4]: > 500 µM
- half-life [9]: 3 h
Compound: O=C(c1nc2c(C(F)(F)F)cc(-c3ccoc3)cn2c1Cl)N1CCC(N2C(=O)COC2=O)CC1

- EC50 (Hepatitis C virus [1]): < 55 nM
- EC50 (Hepatitis C virus [3]): < 55 nM
Compound: O=C(c1nc2c(C(F)(F)F)cc(-c3cn[nH]c3)cn2c1Br)N1CCC(c2cccs2)C1 (configuration not stated)
- Kapp (Hepatitis C virus [10]): 76 nM

- IC50 (Hepatitis C virus [2]): 30 nM
Compound: [3H]CC([3H])(C)c1cc(C(F)(F)F)c2nc(C(=O)N3CCC(N4CCOC4=O)CC3)c(Cl)n2c1 (configuration not stated)

- EC50 (Hepatitis C virus [1]): 680 nM
- IC50 (Hepatitis C virus [2]): 5.4 nM
- EC50 (Hepatitis C virus [3]): 78 nM
- solubility [4]: < 15 µM
Compound: O=C(c1nc2c(C(F)(F)F)cc(-c3ccoc3)cn2c1Cl)N1CCC(c2ccccc2F)C1 (racemic)

Compound: O=C(c1nc2c(C(F)(F)F)cc(C3CC3)cn2c1Cl)N1CCN([C@H]2CC[C@H](O)CC2)C(=O)C1
- EC50 (Hepatitis C virus [1]): 0.81 nM
- EC50 (Hepatitis C virus [11]): 800 nM
- Ratio EC50 (Hepatitis C virus [12]): >100
- EC50 (Hepatitis C virus [13]): 27 nM
- EC50 (Hepatitis C virus [14]): 53 nM
- AUC(0-t) at 24 h [15]: 52000 ng·h/mL
- Vd [16]: 0.9 L/kg
- clearance [17]: 1.1 mL/min/kg
- EC50 (Hepatitis C virus [18]): 1 nM
- IC50 (Hepatitis C virus [2]): 60 nM
- EC50 (Hepatitis C virus [3]): 5.4 nM
- bioavailability [5]: 98%
- Drug metabolism (Liver microsomes [19]): Not Active
- inhibition (INH) (Cytochrome P450 2C9): Not Active
- EC50 (Hepatitis C virus [20]): 38 nM
- inhibition (INH) (Cytochrome P450 3A4): Not Active
- clearance [6]: 20 mL/min/kg
- inhibition (INH) (Cytochrome P450 1A2): Not Active
- AUC(0-t) at 24 h [7]: 3800 ng·h/mL
- inhibition (INH) (Cytochrome P450 2D6): Not Active
- Vd [8]: 4.1 L/kg
- bioavailability [21]: 65%
- solubility [4]: > 500 µM
- Drug metabolism (Liver microsomes [22]): Not Active
- half-life [23]: 10 h
- EC50 (Hepatitis C virus [24]): 200 nM
- EC50 (Hepatitis C virus [25]): 1 nM
- Ratio EC50 (Hepatitis C virus [26]): >100
- inhibition (INH) (Cytochrome P450 2C19): Not Active
- half-life [9]: 3 h
- EC50 (Hepatitis C virus [27]): 1 nM
